Tests used:
Type in all cases: cell-based, human
[1] = system: adipose mesenchymal stem cells; assay: Viability of stem cells suspended in physiological saline containing acetylsalicylic acid
Experimental: The adipose mesenchymal stem cells isolated in Example 1 were treated with trypsin, and then suspended at a concentration of 1.0×10^7 cells in physiological saline containing varying concentrations of acetylsalicylic acid (Sigma; A5376), after which the viability of the cells at 12 hours and 24 hours after the suspension was observed. The physiological saline containing acetylsalicylic acid was prepared by adding acetylsalicylic acid to physiological saline at varying concentrations and sonicating it at 37° C. for 30 minutes.

[2] = system: adipose mesenchymal stem cells; assay: FACS analysis of surface marker expression after suspension in saline containing aspirin lysine and cold storage
Experimental: (§1) The adipose mesenchymal stem cells isolated in Example 1 were treated with trypsin, and then suspended at a concentration of 1.0×10^7 cells in physiological saline containing varying concentrations of aspirin lysine (Shin Poong Pharm. Co., Ltd, Korea). Then, the cells were incubated for 5 days, and the cell count of the cells was measured. In addition, the cells were cold-stored for 24 hours, and then the characteristics of the cells were analyzed by FACS.

[3] = system: adipose mesenchymal stem cells; assay: Viability and cell count after 5 days of incubation following suspension in saline containing aspirin lysine; settings: varying concentrations in physiological saline
Experimental: as §1

[4] = 0.1 mg/10 ml, cold-stored for 24 hours, FACS

Compound | cytotoxicity ([1]; 1.0 mg or more added to 10 ml of physiological saline) | Viability ([1]; 1.0 mg/10 ml in physiological saline, 12 hours after suspension) [%] | Viability ([1]; 1.0 mg/10 ml in physiological saline, 24 hours after suspension) [%] | Viability ([1]; 2.0 mg/10 ml in physiological saline, 12 hours after suspension) [%] | Viability ([1]; 2.0 mg/10 ml in physiological saline, 24 hours after suspension) [%] | Viability ([1]; 5.0 mg/10 ml in physiological saline, 12 hours after suspension) [%] | Viability ([1]; 5.0 mg/10 ml in physiological saline, 24 hours after suspension) [%] | Expression rate CD29 [2, 4] [%] | Expression rate CD31 [2, 4] [%] | Expression rate CD44 [2, 4] [%] | Expression rate CD45 [2, 4] [%] | Expression rate CD90 [2, 4] [%] | Expression rate CD105 [2, 4] [%] | characteristics of the adipose mesenchymal stem cells (FACS) ([2]; suspended 24 hours in aspirin-containing saline, then cold-stored 24 hours) | cell viability depending on concentration [3] | count of the cells after 5 days of incubation [3]
CC(=O)Oc1ccccc1C(=O)O [acetylsalicylic acid] | cytotoxic | 50 | 10 | 20 | 10 | 10 | 5 | – | – | – | – | – | – | – | – | –
CC(=O)Oc1ccccc1C(=O)O [aspirin lysine] | – | – | – | – | – | – | – | 99.97 | 0.21 | 99.25 | 0.17 | 99.66 | 99.89 | not dependent on the concentration of aspirin lysine | somewhat decreased depending on the concentration of aspirin lysine, but this decrease was not significant | did not almost differ between the concentrations of aspirin lysine

From US20160081917A1, “STEM CELL COMPOSITION FOR VENOUS ADMINISTRATION” (K-STEMCELL CO., LTD, priority 2013, published 2016)
